Experiments:
[1] = system: patients with relapsed or refractory (R/R) FL; details: for Dose reductions: n = 56
Description: This Phase Ib/II, open label, multicenter, non-randomized, dose-escalation study evaluated the safety, efficacy, and pharmacokinetics of induction treatment consisting of obinutuzumab (GA101 or G) in combination with polatuzumab vedotin (anti-CD79b(huMA79b.v28)-MC-vc-PAB-MMAE ADC (DCDS4501A) or Pola) and lenalidomide (Len) (G+Pola+Len) in patients with relapsed or refractory (R/R) FL, followed by post induction treatment with obinutuzumab in combination with lenalidomide. The study included an initial dose-escalation phase, followed by an expansion phase during which polatuzumab vedotin and lenalidomide were given at their recommended Phase II doses (RP2Ds).
The primary efficacy endpoint was based on IRC assessment of response. Patients were monitored closely for adverse events throughout the study and for at least 90 days after the last dose of study treatment. To characterize the pharmacokinetic (PK) properties of obinutuzumab, polatuzumab vedotin, and lenalidomide, blood samples were obtained at various timepoints before and during study treatment administration
Safety assessments consist of monitoring and recording adverse events, including serious adverse events and non-serious adverse events of special interest, performing protocol-specified safety laboratory assessments, measuring protocol-specified vital signs, and conducting other protocol-specified tests that were deemed critical to the safety evaluation of the study.
The safety analyses include all treated patients (i.e., patients who received any amount of study treatment). Safety is assessed through summaries of adverse events and changes from baseline in laboratory test results, shift-tables of ECGs findings, and vital signs. All adverse events occurring on or after first study treatment are summarized by mapped term, appropriate thesaurus levels, and NCI CTCAE, Version 4.0 grade. All serious adverse events, adverse events of special interest, and selected adverse events are summarized and listed. Deaths reported during the treatment period and during post-treatment follow-up are listed and summarized.
Adverse Events: NCI CTCAE, Version 4.0 is used for assessing adverse event severity. All adverse events are reported until 90 days after the last dose of study treatment. After this period, the investigator reports any serious adverse events that are believed to be related to prior study treatment and events of second malignancies for patients who received obinutuzumab. Grade 3 and 4 infections (both related and unrelated) are reported until up to 2 years after the last dose of obinutuzumab.
Infusion-Related Reactions: Adverse events that occur during or within 24 hours after the end of study treatment infusion and are judged to be related to infusion of any of the study treatment components are captured as a diagnosis (e.g., “infusion-related reaction”). If a patient experiences both a local and systemic reaction to the same dose of study treatment, each reaction is recorded separately, with signs and symptoms also recorded separately.

[2] = system: patients with relapsed or refractory (R/R) FL; assay: Phase Ib/II study, dose-escalation phase: dose-limiting toxicities and recommended Phase II dose
Description: The purpose of the FL dose-escalation phase was to identify the RP2D for polatuzumab vedotin and the RP2D for lenalidomide when combined with a fixed dose of obinutuzumab as induction treatment.
Patients were closely monitored for adverse events during the dose limiting toxicity (DLT) assessment window, defined as the first treatment cycle (from Day 1 of Cycle 1 to Day 1 of Cycle 2). Patients experiencing a DLT during the DLT assessment period continued receiving study treatment once the event resolved if determined it was safe to continue treatment and there was potential for clinical benefit. Patients who discontinued from the study prior to completing the DLT assessment window for reasons other than a DLT were considered non-evaluable for dose-escalation decisions and RP2D assessments and were replaced by an additional patient at that same dose level. Patients who missed one or more doses of polatuzumab vedotin or obinutuzumab or five consecutive daily doses of lenalidomide during the DLT assessment window for reasons other than a DLT were also replaced and considered non-evaluable for dose-escalation decisions. Patients who received supportive care during the DLT assessment window that could confound the evaluation of DLTs were replaced at the discretion of the Medical Monitor.
A standard 3+3 dose-escalation schema was used. […]

[3] = Example 1 interim, n = 52, given as G+Pola+Len

Molecule	AEs leading to lenalidomide dose interruptions [1, 3]	AEs leading to lenalidomide dose reduction [1, 3]	Patients who required lenalidomide dose reductions ([1]; Example 2, during maintenance)	Recommended Phase II dose (RP2D) ([2]; combined with polatuzumab vedotin and fixed dose of 1000 mg obinutuzumab)	Dose reductions ([1]; Example 2, given as G+Pola+Len)	Recommended Phase II dose (RP2D) ([2]; combined with lenalidomide and fixed dose of 1000 mg obinutuzumab)
Nc1cccc2c1CN(C1CCC(=O)NC1=O)C2=O (stereo not shown) [lenalidomide, 3-(4-amino-1-oxo-2,3-dihydro-1H-isoindol-2-yl)piperidine-2,6-dione]	52%	31%	Two	20 mg	–	–
polatuzumab vedotin	–	–	–	–	no dose reductions	1.4 mg/kg
obinutuzumab: anti-CD20 antibody; afucosylated glyco-engineered humanized B-Ly1 antibody	–	–	–	–	no dose reductions	–
